According to PubChem BioAssay AID1996:
In brackets after ≈: the same amount, converted by molar mass.

Conditions: buffer; pH 7.4; 200.0 µM

Row | SMILES | solubility kinetic
1 | O=C(Cc1csc(-c2ccccc2)n1)NCc1ccco1 | 39.1 µg/mL (≈ 131 µM)
2 | CCCCN(C)Cc1c(C)[nH]c2c(ccc3ccccc32)c1=O | > 46.3 µg/mL
3 | Cc1nc(N2CCOCC2)nc(N2CCCCC2C)c1[N+](=O)[O-] (stereo not given) | 12.2 µg/mL (≈ 38 µM)
4 | Cc1cccc(NC(=O)c2cc3cc([N+](=O)[O-])ccc3s2)n1 | < 0.2 µg/mL
5 | O=[N+]([O-])c1ccc(SCCc2ccccn2)cc1 | 30.6 µg/mL (≈ 118 µM)
6 | CC(C)[C@H](NS(=O)(=O)c1ccccc1F)C(=O)NC1CCCCC1 | > 53.5 µg/mL
7 | Cn1nccc1C(=O)N1CCC(Cc2ccccc2)CC1 | > 42.5 µg/mL
8 | Cc1ccc(C(=O)C(C)OC(=O)c2nc(Cl)ccc2Cl)cc1 (stereo not given) | > 50.7 µg/mL
9 | CCCN(CCC)C(=O)c1cc2c(=O)n3cccc(C)c3nc2s1 | 34.7 µg/mL (≈ 101 µM)
10 | Cc1[nH]c2ccccc2c1C(=O)C(=O)N1CC2CC(C1)c1cccc(=O)n1C2 (stereo not given) | > 56.3 µg/mL
11 | CNC(=O)c1cc(S(=O)(=O)NCc2ccncc2)ccc1OC | > 50.3 µg/mL
12 | Cn1c(CC(=O)NNC(=O)c2ccccc2F)nc2ccccc21 | > 48.9 µg/mL
13 | O=c1oc2ccccc2c(Nc2ccc(F)cc2)c1[N+](=O)[O-] | 8.4 µg/mL (≈ 28 µM)
14 | CCCn1c(SCC(=O)N(C)C2CCS(=O)(=O)C2)nc2sc3c(c2c1=O)CCC3 (stereo not given) | > 68.3 µg/mL
15 | O=C(NC1CC(=O)c2sccc21)c1ccc(Cl)cc1Cl (stereo not given) | > 48.9 µg/mL
16 | COc1cccc(S(=O)(=O)NCc2ccc(C(=O)N3CCN(C)CC3)cc2)c1 | > 60.5 µg/mL
17 | COCCN(Cc1ccc(F)cc1)C(=O)c1cc2ccccc2oc1=O | > 53.3 µg/mL
18 | CN1CCOCCOc2ccccc2OCCOCC1 | > 42.2 µg/mL
19 | Cc1ccc(NC(=O)CN(C)C(=O)Cc2c[nH]c3ccccc23)cc1 | > 50.3 µg/mL
20 | CC(=O)c1c(COC(=O)c2ccc(C)cc2)nc2ccccc2[n+]1[O-] | 2.7 µg/mL (≈ 8.03 µM)
21 | Cc1cc(C)c2nc(/N=C(\N)NC(=O)c3ccccc3)nc(C)c2c1 | 1.3 µg/mL (≈ 3.9 µM)
22 | COc1ccc(C)c2sc(N(CCN(C)C)C(=O)c3ccc4ccccc4c3)nc12.Cl | 30.8 µg/mL
23 | O=C(Nc1ccccc1N1CCOCC1)c1ccc2ccccc2c1 | 0.8 µg/mL (≈ 2.41 µM)

Row | SMILES | solubility kinetic
24 | CCOc1ccccc1/C=C\c1nc(O)c([N+](=O)[O-])c(=O)[nH]1 | > 45.5 µg/mL
25 | Cn1cccc1C(=O)OCC(=O)Nc1sccc1C#N | 4.2 µg/mL (≈ 14.5 µM)
26 | Cc1ccc(O)c(CNc2cccc3cccnc23)c1 | 2.9 µg/mL (≈ 11 µM)
27 | Cn1ncc(Cl)c1C(=O)N1CCC2(CC1)OCCO2 | > 42.9 µg/mL
28 | Cc1cccc(C(=O)O/N=C/c2ccc(Br)cc2)c1 | < 0.7 µg/mL
29 | CCN(CC)S(=O)(=O)c1cc(NC(=O)NCCCl)ccc1C | > 52.2 µg/mL
30 | N#C/C(=C\C=C\c1ccccc1)C(=O)N1CCCC1 | 7.3 µg/mL (≈ 28.9 µM)
31 | CC(C)[C@H](NS(=O)(=O)c1ccccc1F)C(=O)OCC(=O)Nc1cccc(S(N)(=O)=O)c1 | > 73.1 µg/mL
32 | CCCCc1nc2ccccc2[nH]1 | > 26.1 µg/mL
33 | Cc1ccc2[nH]c3c(c2c1)CNCC3.Cl | 31.7 µg/mL
34 | Cc1ccc(OCc2ccc(Br)cc2)c([N+](=O)[O-])n1 | 2.2 µg/mL (≈ 6.81 µM)
35 | Oc1ccc2ccccc2c1CN1CCCC1 | 32 µg/mL (≈ 141 µM)
36 | Cc1nnc(SCC(=O)Nc2sccc2C#N)s1 | > 44.5 µg/mL
37 | Nc1ccc(-c2cnc3ccccc3n2)cc1 | 27.4 µg/mL (≈ 124 µM)
38 | Cc1ccc(/C=C/C(=O)O)cc1S(=O)(=O)N1CCc2ccccc21 | > 51.5 µg/mL
39 | Cn1c(=O)n(C)c2cc(S(=O)(=O)N3CCN(c4ccccc4)CC3)ccc21 | 0.3 µg/mL (≈ 0.776 µM)
40 | CC(=O)Oc1cccc(-c2nc3ccccc3c(=O)o2)c1 | 7.9 µg/mL (≈ 28.1 µM)
41 | CCN(C(=O)Cc1c(C(=O)O)n(C)c2ccccc12)c1cccc(C)c1 | > 52.6 µg/mL
42 | COc1cccc(-c2noc(-c3ccc(Br)o3)n2)c1 | 0.5 µg/mL (≈ 1.56 µM)
43 | Cc1ccc(OCC(=O)OCC(=O)Nc2ccc3c(c2)OCO3)cc1C | 9.6 µg/mL (≈ 26.9 µM)
44 | CC(O)CNCCCOc1cccc(C(F)(F)F)c1.O=C(O)C(=O)O (stereo not given) | 51.7 µg/mL
45 | O=C(COC(=O)/C=C/c1ccc(S(=O)(=O)N2CCOCC2)cc1)Nc1ccc(F)c(F)c1F | 11.6 µg/mL (≈ 23.9 µM)
